Laboratory results as given in PubChem BioAssay (NCI).
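Five concentrations, 48 hours, 96-well plates. Here, GI50 denotes the concentration required for 50% inhibition of growth. TGI marks complete inhibition of growth.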 Where a SMILES comes first, the peptide text is derived from it. The star is where a group is joined. X36 = O=C(c1ccc(-c2ccc(Cl)cc2Cl)o1)*

Experiments:
Test in all cases: NCI anticancer screen, dose series, 48 h
BT-549 breast = system: BT-549 breast
HOP-92 NSCLC = system: HOP-92 NSCLC
MALME-3M melanoma = system: MALME-3M melanoma
MDA-MB-231 breast = system: MDA-MB-231 breast
OVCAR-4 ovarian = system: OVCAR-4 ovarian
OVCAR-8 ovarian = system: OVCAR-8 ovarian
RXF 393 renal = system: RXF 393 renal
SK-MEL-28 melanoma = system: SK-MEL-28 melanoma
U251 CNS = system: U251 CNS
UACC-257 melanoma = system: UACC-257 melanoma

SMILES | TGI (BT-549 breast) [µM] | TGI (HOP-92 NSCLC) [µM] | TGI (MALME-3M melanoma) [µM] | TGI (MDA-MB-231 breast) [µM] | TGI (OVCAR-4 ovarian) [µM] | TGI (OVCAR-8 ovarian) [µM] | TGI (RXF 393 renal) [µM] | TGI (SK-MEL-28 melanoma) [µM] | TGI (U251 CNS) [µM] | TGI (UACC-257 melanoma) [µM] | GI50 (BT-549 breast) [µM] | GI50 (HOP-92 NSCLC) [µM] | GI50 (MALME-3M melanoma) [µM] | GI50 (MDA-MB-231 breast) [µM] | GI50 (OVCAR-4 ovarian) [µM] | GI50 (OVCAR-8 ovarian) [µM] | GI50 (RXF 393 renal) [µM] | GI50 (SK-MEL-28 melanoma) [µM] | GI50 (U251 CNS) [µM] | GI50 (UACC-257 melanoma) [µM]
COC(=O)[C@H](Cc1ccccc1)NC(=O)[C@H](Cc1ccccc1)NC(=O)[C@@H]1CCCN1C(=O)N[C@H]1C2C=CC(C2)C1C(=O)N1CCC[C@H]1C(=O)N[C@@H](C)C(=O)N[C@H](C(=O)OC)C(C)C (stereo not given in full) | > 100 | > 100 | > 100 | > 100 | > 100 | > 100 | > 100 | > 100 | > 100 | > 100 | – | – | – | – | – | – | – | – | – | –
CC1=NN(c2ccc(S(=O)(=O)O)cc2)C2(C1)SCC(=O)N2c1nc2ccccc2s1 (stereo not given) | > 100 | > 100 | > 100 | > 100 | > 100 | > 100 | > 100 | > 100 | > 100 | > 100 | – | – | – | – | – | – | – | – | – | –
O=C(NCCCCCCNCc1cccc2ccccc12)Nc1cccc2ccccc12 | > 100 | > 100 | > 100 | > 100 | > 100 | > 100 | > 100 | > 100 | > 100 | > 100 | – | – | – | – | – | – | – | – | – | –
Cc1ccc([C@H]2CC(=O)C[C@H](c3ccc(C)cc3)C23C(=O)c2ccccc2C3=O)cc1 | > 100 | 49.7 | > 100 | > 100 | 47.2 | > 100 | 39 | > 100 | 35.6 | 49.7 | – | – | – | – | – | – | – | – | – | –
O=C1CCCCC(=O)OC2(CCCCC2=O)CC1 (stereo not given) | > 100 | > 100 | > 100 | > 100 | > 100 | > 100 | > 100 | > 100 | > 100 | > 100 | – | – | – | – | – | – | – | – | – | –
O=c1oc2ccccc2c(Nc2ccc3c(c2)Oc2ccccc2O3)c1[N+](=O)[O-] | 64.9 | 35.2 | 53.3 | 38.3 | 67 | 37.6 | 34.6 | 50 | 30 | 91.2 | – | – | – | – | – | – | – | – | – | –
C[C@H](N)C(=O)Nc1ccc(-c2nc3ccccc3s2)cc1 | > 100 | 95.3 | 39.5 | 36.5 | 36.6 | 66.8 | > 100 | 32.5 | 32.2 | > 100 | – | – | – | – | – | – | – | – | – | –
Cc1ccn2c(=O)cc(-c3ccccc3)nc2c1 | > 100 | > 100 | > 100 | > 100 | > 100 | > 100 | > 100 | > 100 | > 100 | > 100 | – | – | – | – | – | – | – | – | – | –
CC(=O)O[C@H]1C#C/C=C\C#CC[C@@H]2C(=O)N[C@@H]12 | > 86.5 | 98.9 | > 100 | > 100 | > 100 | 73.1 | 73.3 | > 100 | > 100 | > 100 | – | – | – | – | – | – | – | – | – | –
O=c1c2c([N+](=O)[O-])cccc2nc2[nH]c3ccccc3n12 | 51.1 | 69 | > 75 | 31.7 | 23.9 | 31 | 30.4 | > 75 | > 75 | > 75 | – | – | – | – | – | – | – | – | – | –
C=C1C(=O)CC2C(=O)C(C)(O)CC/C=C(\C)C(=O)CC12 (stereo not given) | 35.5 | > 57.3 | 27.1 | 74.7 | > 58.2 | > 63.6 | 40.3 | > 55.6 | > 100 | 55.5 | – | – | – | – | – | – | – | – | – | –
Nc1cccc(Nc2nc3ccccc3nc2NS(=O)(=O)c2ccccc2)c1 | 44.9 | 78 | 72.7 | 36 | 46.5 | > 100 | 38.7 | 49.3 | 35.3 | > 100 | – | – | – | – | – | – | – | – | – | –
Cc1ccc(S(=O)(=O)OCC(=O)O)cc1 | > 100 | > 100 | > 100 | > 100 | > 100 | > 100 | > 100 | > 100 | > 100 | > 100 | – | – | – | – | – | – | – | – | – | –
Cc1ccc(-c2cc(N)n(-c3nc4c(c(=O)n(C)c(=O)n4C)n3C)n2)cc1 | > 100 | > 100 | > 100 | > 100 | > 100 | > 100 | > 100 | > 100 | > 100 | > 100 | – | – | – | – | – | – | – | – | – | –
O=C1NC(N/N=C/C(O)C(O)C(O)CO)=N/C1=C\c1ccco1 (stereo not given) | > 100 | > 100 | > 100 | > 100 | > 100 | > 100 | > 100 | > 100 | > 100 | > 100 | – | – | – | – | – | – | – | – | – | –
Cc1cn(C2CC(n3cc(Cn4cc(Br)c(=O)[nH]c4=O)nn3)C(CO)O2)c(=O)[nH]c1=O (stereo not given) | > 100 | > 100 | > 100 | > 100 | > 100 | > 100 | > 100 | > 100 | > 100 | > 100 | – | – | – | – | – | – | – | – | – | –

SMILES | TGI (BT-549 breast) [µM] | TGI (HOP-92 NSCLC) [µM] | TGI (MALME-3M melanoma) [µM] | TGI (MDA-MB-231 breast) [µM] | TGI (OVCAR-4 ovarian) [µM] | TGI (OVCAR-8 ovarian) [µM] | TGI (RXF 393 renal) [µM] | TGI (SK-MEL-28 melanoma) [µM] | TGI (U251 CNS) [µM] | TGI (UACC-257 melanoma) [µM] | GI50 (BT-549 breast) [µM] | GI50 (HOP-92 NSCLC) [µM] | GI50 (MALME-3M melanoma) [µM] | GI50 (MDA-MB-231 breast) [µM] | GI50 (OVCAR-4 ovarian) [µM] | GI50 (OVCAR-8 ovarian) [µM] | GI50 (RXF 393 renal) [µM] | GI50 (SK-MEL-28 melanoma) [µM] | GI50 (U251 CNS) [µM] | GI50 (UACC-257 melanoma) [µM]
Nc1ccc(N=Nc2ccccc2)cc1 | > 100 | > 100 | > 100 | 88 | > 100 | > 100 | > 100 | > 100 | > 100 | > 100 | – | – | – | – | – | – | – | – | – | –
Cc1cc(C)cc(Nc2cc(=O)[nH]c(=O)[nH]2)c1 | > 100 | > 100 | > 100 | > 100 | > 100 | > 100 | > 100 | > 100 | > 100 | > 100 | – | – | – | – | – | – | – | – | – | –
O=c1c2ncn(COCCCl)c2n(-c2ccccc2)c(=S)n1-c1ccccc1 | > 100 | > 100 | > 100 | > 100 | > 100 | > 100 | > 100 | > 100 | > 100 | > 100 | – | – | – | – | – | – | – | – | – | –
Cc1ccc2c(=O)cc(-c3cccs3)[nH]c2n1 | > 100 | > 100 | > 100 | > 100 | > 100 | > 100 | > 62.6 | > 100 | > 100 | > 100 | – | – | – | – | – | – | – | – | – | –
C[C@]12CCc3nc(Nc4ccccc4)sc3C1=CC[C@@H]1[C@@H]2CC[C@]2(C)/C(=N/NC(N)=S)CC[C@@H]12 | > 100 | > 100 | > 100 | > 100 | > 100 | > 100 | 5.09 | > 100 | > 100 | > 100 | 3.26 | 5.59 | 3 | 4.43 | 7.86 | 3.32 | 2.18 | 4.49 | 3.64 | 6.1
CCC(C)C(NC(=O)CNC(=O)C(Cc1ccccc1)NC(=O)C1CCCN1C(=O)c1ccc(-c2ccc(Cl)cc2Cl)o1)C(=O)OC (stereo not given) (X36-PFGI-OMe; configuration not given here) | > 100 | 41.9 | > 100 | > 100 | > 100 | > 100 | > 100 | > 100 | 93.5 | 67.2 | – | – | – | – | – | – | – | – | – | –
N#Cc1c(-c2ccccc2)nc(-c2ccccc2)sc1=S | > 100 | > 100 | > 100 | > 100 | > 100 | > 100 | > 100 | > 100 | > 100 | > 100 | – | – | – | – | – | – | – | – | – | –
COc1ccc(/C=N/N=C(\N)NO)c(O)c1 | > 10 | > 10 | > 10 | > 10 | > 10 | > 10 | > 10 | > 10 | > 10 | > 10 | – | – | – | – | – | – | – | – | – | –
CC1=NN2C(=N)/C(=C/c3ccco3)C(=O)N=C2S1 | > 100 | > 100 | > 100 | > 100 | > 100 | > 100 | > 100 | > 100 | > 100 | > 100 | – | – | – | – | – | – | – | – | – | –
Cc1ccc(/C(O)=C/C(=O)C(=O)/C=C(\O)c2ccc(C)cc2C)c(C)c1 | 3.23 | 8.6 | 3.45 | 4.83 | 9.04 | 7.63 | 4.22 | 3.84 | 3.49 | 3.21 | – | – | – | – | – | – | – | – | – | –
CCOC(=O)/C1=C(\C)N(c2ccc(C)cc2)C(=O)c2ccccc2C(=O)c2c(OC(C)=O)ccc(OC(C)=O)c21 | 90.2 | > 100 | 72.6 | 83.9 | 54.2 | > 100 | 92.9 | 12.2 | 97.9 | 80.7 | – | – | – | – | – | – | – | – | – | –
CCC1(C)N=C(c2cnccn2)NN1c1ccc(Cl)cc1 (stereo not given) | > 100 | > 100 | > 100 | > 100 | > 100 | > 100 | > 100 | > 100 | > 100 | 99.3 | – | – | – | – | – | – | – | – | – | –
C=CCCC(=O)CC(O)(C(F)(F)F)C(F)(F)F | > 100 | > 100 | > 100 | > 100 | > 100 | > 100 | > 100 | > 100 | > 100 | > 100 | – | – | – | – | – | – | – | – | – | –
O=c1[nH]/c(=C/c2ccc(OCc3ccccc3)cn2)c(=O)[nH]/c1=C/c1ccc(O)cc1 | 8.63 | > 77.6 | 8.67 | > 100 | 0.59 | > 32.4 | 7.38 | > 100 | > 87.9 | > 100 | – | – | – | – | – | – | – | – | – | –
CC(=O)O[C@H]1CC[C@@]2(C)C(=CC[C@H]3[C@@H]4C[C@H](N5CCCC5)[C@H](OC(C)=O)[C@@]4(C)CC[C@@H]32)C1 | > 100 | > 100 | > 74.3 | > 100 | > 100 | > 100 | > 100 | > 100 | > 100 | > 68.2 | – | – | – | – | – | – | – | – | – | –
